According to patent US20070093420A1, “Therapy procedure for drug delivery for trigeminal pain” (priority 2005, published 2007):

Assays:
Type in all cases: in vivo, Sprague-Dawley rats
[1] = Withdrawal latencies after noxious laser thermal stimulation of ears or hindpaws after intranasal administration; conditions: rat, intranasal 10 nmoles/kg, tested from five minutes after final application
Description: One way to test activity of an analgesic agent in a rat model is by treatment-induced changes in latencies (times) of withdrawal in response to noxious heating of the skin, typically using an ear, the face or a hindpaw. Thus, application of coherent or non-coherent (non-laser) radiant heat to the ear, the face or hindpaw will elicit rapid withdrawal movements. […] Transmucosal or transdermal administration of analgesic agents to the trigeminal nerve to reduce trigeminal nerve-associated pain can be tested for regional and/or systemic analgesia. The rostral external part of a rat's ear is innervated by a branch of the mandibular nerve, itself a branch of the trigeminal nerve, thus after treatment an increase in latency to withdrawal time would indicate regional analgesia. […]
Sprague-Dawley rats (Charles River Laboratories) were lightly anesthetized with urethane and placed with minimal restraint on a heating pad to maintain their body temperature at 37° C. […] Baseline withdrawal latencies were measured by delivering 4 separate stimuli with a resting period of approximately 15 minutes between each stimulus. […] As described above, testing sessions were videotaped and analyzed.

[2] = test system: second-order neurons in the trigeminal nucleus caudalis; test: Electrical stimulus-induced windup of trigeminal nucleus caudalis neurons; conditions: rat, intranasal 0.025 ml of 0.05 mg/ml
Description: Male Sprague-Dawley rats (Charles River Laboratories) were anesthetized with isoflurane and used in the following experiments. […] Needle electrodes were inserted subcutaneously at the site indicated in FIG. 5A by the black spot on the rat's head, and the skin was stimulated at 0.66 Hz, 2 msec duration, 3× C-fiber threshold for >25 times.

[3] = test system: trigeminal nucleus caudalis wide dynamic range (WDR) neurons; test: Long-pulse laser-induced responses of trigeminal nucleus caudalis WDR neurons; conditions: rat, intranasal 0.025 ml of 0.05 mg/ml
Experimental: Male Sprague-Dawley rats (Charles River Laboratories) were anesthetized with isoflurane and used in the following experiments. In the anesthetized rats, single unit, extracellular recordings were performed in trigeminal nucleus caudalis while stimulating the ipsilateral facial skin with diode laser or constant-current bipolar electrical stimulation. Epoxylate-insulated, tungsten microelectrodes (10 MOhm) were used under stereotaxic coordinate control. […] Shown are responses (action potentials per second) to an 8 second-duration, 425 mA intensity laser stimulus to the site indicated by the black spot on a map of the rat's face (FIG. 4E).

[4] = test system: trigeminal nucleus caudalis wide dynamic range (WDR) neurons; test: Electrical stimulation-induced responses of trigeminal nucleus caudalis WDR neurons, single unit extracellular recording; conditions: rat
Experimental: Male Sprague-Dawley rats (Charles River Laboratories) were anesthetized with isoflurane and used in the following experiments. In the anesthetized rats, single unit, extracellular recordings were performed in trigeminal nucleus caudalis while stimulating the ipsilateral facial skin with constant-current bipolar electrical stimulation. Epoxylate-insulated, tungsten microelectrodes (10 MOhm) were used under stereotaxic coordinate control.
Shown are responses (action potentials per 30 stimuli) to repeated stimulation of a rat's face before oxytocin administration (pre-oxytocin). After administration with oxytocin at approximately 0.1 IU, responses were recorded every five minutes for 65 minutes. A second administration of oxytocin at the same dosage was administered at approximately 70 minutes after the first dose. The approximate site of the administration of the electrical stimulation is indicated by the black spot on a map of the rat's face (FIG. 3B).

[5] = test system: pain sensing nerve cells in the trigeminal ganglion; test: Nerve impulses of single pain sensing nerve cells in the trigeminal ganglion in response to noxious laser pulses to the face; conditions: rat, 10 nmoles applied to the nose
Experimental: Sprague-Dawley rats (Charles River Laboratories) were anesthetized with isofluorane and a platinum electrode was inserted transcranially into the trigeminal ganglion. Nerve impulses (action potential) were recorded from single pain sensing nerve cells in the trigeminal ganglion in response to application of noxious laser pulses to the face of the rats. After recording responses to several identical laser pulses, 10 nmoles of oxytocin was applied to the nose of the rats. Thereafter, identical laser pulses were once again applied and recorded.

[6] = intranasal approximately 0.1 IU, first dose

With Tyr-Gly-Gly-Phe-Met [met-enkephalin] as the compound, how does the “analgesic effect, ear withdrawal latency (FIG. 1A)” value ([1]; laser stimulation of ears) read?
The value was “achieved a regional analgesic effect in the head region”.

What about the “systemic analgesic effect, hindpaw withdrawal latency (FIG. 1B)” value ([1]; laser stimulation of hindpaws) of the same compound?
The value was “without a systemic analgesic effect at the hindpaw”.

For `C[C@@H](O)[C@@H]1NC(=O)[C@H](CCCCN)NC(=O)[C@@H](Cc2c[nH]c3ccccc23)NC(=O)[C@H](Cc2ccccc2)NC(=O)[C@@H](NC(=O)[C@H](N)Cc2ccccc2)CSSC[C@@H](C(=O)N[C@H](CO)[C@@H](C)O)NC1=O` [octreotide], which “total number of action potentials during the stimulation period, 10 minutes after administration” value ([2]; 0.66 Hz, 2 msec, 3x C-fiber threshold, 506 before treatment) is on record?
The value was 408.

What about the “reduction of total number of action potentials, 10 minutes after administration” value ([2]; versus before treatment) of the same compound?
The value was 19.4%.

And the “response 25 minutes post-treatment” value [3]?
Its value is “recovered”.

What about the “response five minutes post-treatment” value ([3]; 8 second 425 mA laser stimulus to face) of the same compound?
Its value is “no detectable reduction in response”.

And the “response at 10 minutes post-treatment” value ([3]; 8 second 425 mA laser stimulus, baseline 42 spikes)?
Its value is 5 spikes.

And the “reduction of response at 10 minutes post-treatment” value ([3]; versus pre-treatment baseline)?
The value was 88%.

Which “responses (action potentials per 30 stimuli) after first administration (FIG. 3A)” value ([4]; intranasal approximately 0.1 IU, electrical stimulation of facial skin) does the source give for `CC[C@H](C)[C@@H]1NC(=O)[C@H](Cc2ccc(O)cc2)NC(=O)[C@@H](N)CSSC[C@@H](C(=O)N2CCC[C@H]2C(=O)N[C@@H](CC(C)C)C(=O)NCC(N)=O)NC(=O)[C@H](CC(N)=O)NC(=O)[C@H](CCC(N)=O)NC1=O` [Oxytocin, Cys-Tyr-Ile-Gln-Asn-Cys-Pro-Leu-Gly] here?
Its value is “significant reduction in responses”.

What about the “time after first administration at which significant reduction in responses began” value [4, 6] of the same compound?
The value was 10 min.

And the “time post treatment until which reduction continued, when responses began to increase” value [4, 6]?
The value was 50 min.

What about the “time to significant reduction in responses after second treatment” value ([4]; second dose approximately 0.1 IU at approximately 70 minutes after the first) of the same compound?
Its value is no more than 10 min.

What about the “neuronal response (average nerve impulses per laser pulse) post- vs pre-treatment (FIG. 2)” value [5] of the same compound?
The value was “significantly (p<0.05) reduced”.
